The assay deals with PCSK9. Description: PCSK9 secretion assay in HepG2 cells (PCSK9 ELISA). Type of assay: cell-based. Particulars: HepG2 cells, 16 hours incubation, at least 6 concentrations. On the procedure: HepG2 cells (from ATCC, Catalog no. HB-8065) were maintained in DMEM (Invitrogen) supplemented with 10% fetal bovine serum (Invitrogen). The day prior to the PCSK9 assay, cells are seeded in 96-well collagen coated plates at 25,000 cells/well.
The compounds of the invention were stored at −20° C. until used. The test article compound was dissolved in 100% ethanol to a 50 mM stock solution. This was then diluted in FBS to a final concentration of 1 mM. This solution was placed in a sonicating water bath for 30 minutes. Subsequent dilutions were then made in FBS supplemented with an equivalent volume of ethanol and mixed by vortexing.
HepG2 cells were seeded onto a collagen coated 96-well plate (Becton Dickinson, Catalog no. 35-4407) the day prior to the assay, as described above. The next day, the cell medium was removed, washed once with 100 μL serum free DMEM to remove any residual PCSK9, and replaced with 90 μL of serum free DMEM. Ten microliters of each compound concentration prepared in FBS was then added. Each concentration of compound was tested in triplicate. The compound was incubated with the cells overnight for 16 hours. Following this incubation, 10 μL of AlamarBlue was added to each well and cells incubated for another 2 hours. The plates were then removed and AlamarBlue fluorescence was measured (excitation, 550 nm and […]) to assess cell viability. Cell culture supernatant was then diluted […] 1×RDSP Calibrator Diluent and PCSK9 ELISA was then performed with 50 μL of this diluted sample, as per the manufacturer's instructions. The ELISA was measured on a Victor X5 multilabel plate reader (PerkinElmer) at an absorbance of 450 nm with background correction measured at 550 nm (The PCSK9 Elisa kits can be purchased from R&D System, Catalog no. DPC900).
Alternatively, an IC50 could also be obtained when this type of assay was carried out using at least 6 different concentrations of the test compounds. Table 1 lists the IC50 values for the compounds tested in this assay.
(In general: In an ELISA, binding on a coated surface is turned into a signal by an enzyme label.)

SMILES strings stand for the structures. Where only a bound is given, the exact number is not on record here.

The results in this text go back to patent US20140093513A1, “METHODS OF LOWERING PROPROTEIN CONVERSATE SUBTILISIN/KEXIN TYPE 9 (PCSK9)” (Catabasis Pharmaceuticals, Inc., priority 2012, published 2014).

In general, IC50 refers to the concentration needed to halve the response being measured. Read a high IC50 as weaker potency.

For the compound `CC/C=C\C/C=C\C/C=C\C/C=C\C/C=C\CCCC(=O)NCCNC(=O)c1cncc(-c2ccccc2)c1` [VI-2, N-(2-((5Z,8Z,11Z,14Z,17Z)-icosa-5,8,11,14,17-pentaenamido)ethyl)-5-phenylnicotinamide], the half-inhibitory concentration (IC50) is 25 to 50 µM. The compound `CC/C=C\C/C=C\C/C=C\C/C=C\C/C=C\C/C=C\CCC(=O)NCCOCCOCCOC` [III-1, (4Z,7Z,10Z,13Z,16Z,19Z)—N-(2-(2-(2-methoxyethoxy)ethoxy)ethyl)docosa-4,7,10,13,16,19-hexaenamide] came in with a concentration for half-maximal inhibition (IC50) above 50 µM.

`CC/C=C\C/C=C\C/C=C\C/C=C\C/C=C\CCCC(=O)NCCNC(=O)c1ccc(CCN2CCOCC2)nc1` [Compound V-2, N-(2-((5Z,8Z,11Z,14Z,17Z)-icosa-5,8,11,14,17-pentaenamido)ethyl)-6-(2-morpholinoethyl)nicotinamide] came in with an IC50 of 25 to 50 µM.

The compound `CC/C=C\C/C=C\C/C=C\C/C=C\C/C=C\CCCC(=O)N1CC[C@H](NC(=O)C2=CC(=O)C(C)(c3ccccc3)O2)C1` (stereo partly drawn) [VII-4, N—((S)-1-((5Z,8Z,11Z,14Z,17Z)-icosa-5,8,11,14,17-pentaenoyl)pyrrolidin-3-yl)-5-methyl-4-oxo-5-phenyl-4,5-dihydrofuran-2-carboxamide] displayed an IC50 below 25 µM. Take `CC/C=C\C/C=C\C/C=C\C/C=C\C/C=C\CCCC(=O)N1CC[C@H](NC(=O)C(C)(C)Oc2ccc(C(=O)c3ccc(Cl)cc3)cc2)C1` [VII-22, 2-(4-(4-chlorobenzoyl)phenoxy)-N—((S)-1-((5Z,8Z,11Z,14Z,17Z)-icosa-5,8,11,14,17-pentaenoyl)pyrrolidin-3-yl)-2-methylpropanamide]: the IC50 is below 25 µM. Turning to `CC/C=C\C/C=C\C/C=C\C/C=C\C/C=C\CCCC(=O)NC1CCN(C(=O)C(C)(C)Oc2ccc(C(=O)c3ccc(Cl)cc3)cc2)CC1` [VII-25, (5Z,8Z,11Z,14Z,17Z)—N-(1-(2-(4-(4-chlorobenzoyl)phenoxy)-2-methylpropanoyl)piperidin-4-yl)icosa-5,8,11,14,17-pentaenamide], the IC50 is below 25 µM. In turn, `CC/C=C\C/C=C\C/C=C\C/C=C\C/C=C\CCCC(=O)N1CCC[C@H]1CNC(=O)C(C)(C)Oc1ccc(C(=O)c2ccc(Cl)cc2)cc1` [VII-24, 2-(4-(4-chlorobenzoyl)phenoxy)-N—(((S)-1-((5Z,8Z,11Z,14Z,17Z)-icosa-5,8,11,14,17-pentaenoyl)pyrrolidin-2-yl)methyl)-2-methylpropanamide] had an IC50 above 50 µM. `CC/C=C\C/C=C\C/C=C\C/C=C\C/C=C\CCCC(=O)NCCNC(=O)c1ccc(CCN2CCCC2)nc1` [Compound V-8, N-(2-((5Z,8Z,11Z,14Z,17Z)-icosa-5,8,11,14,17-pentaenamido)ethyl)-6-(2-(pyrrolidin-1-yl)ethyl)nicotinamide] gave an IC50 below 25 µM. On to `CC/C=C\C/C=C\C/C=C\C/C=C\C/C=C\CCCC(=O)NCCNC(=O)c1ccc(=O)n(C)c1` [II-7, N-(2-((5Z,8Z,11Z,14Z,17Z)-icosa-5,8,11,14,17-pentaenamido)ethyl)-1-methyl-6-oxo-1,6-dihydropyridine-3-carboxamide], for which the half-inhibitory concentration (IC50) was above 50 µM. In turn, `CC/C=C\C/C=C\C/C=C\C/C=C\C/C=C\CCCC(=O)N1CCC(N(C)C(=O)C2=CC(=O)C(C)(c3ccccc3)O2)CC1` (stereo not shown) [VII-7, N-(1-((5Z,8Z,11Z,14Z,17Z)-icosa-5,8,11,14,17-pentaenoyl)piperidin-4-yl)-N,5-dimethyl-4-oxo-5-phenyl-4,5-dihydrofuran-2-carboxamide] displayed an IC50 below 25 µM. In the case of `CC/C=C\C/C=C\C/C=C\C/C=C\C/C=C\CCCC(=O)NCCNC(=O)c1ccccc1NC(=O)c1cccnc1` [Compound I-59, N-(2-((2-((5Z,8Z,11Z,14Z,17Z)-icosa-5,8,11,14,17-pentaenamido)ethyl)carbamoyl)phenyl)nicotinamide], the IC50 is above 50 µM.

Turning to `CC/C=C\C/C=C\C/C=C\C/C=C\C/C=C\C/C=C\CCC(=O)NCCNC(=O)C(C)(C)Oc1ccc(C(=O)c2ccc(Cl)cc2)cc1` [II-36, (4Z,7Z,10Z,13Z,16Z,19Z)—N-(2-(2-(4-(4-chlorobenzoyl)phenoxy)-2-methylpropanamido)ethyl)docosa-4,7,10,13,16,19-hexaenamide], the concentration for half-maximal inhibition (IC50) was below 25 µM.

With `CC/C=C\C/C=C\C/C=C\C/C=C\C/C=C\CCCC(=O)N[C@H]1CC[C@H](NC(=O)c2cccnc2)CC1` [Compound I-42, N-((1R,4R)-4-((5Z,8Z,11Z,14Z,17Z)-icosa-5,8,11,14,17-pentaenamido)cyclohexyl)nicotinamide], the half-maximal inhibitory concentration (IC50) was above 50 µM. The compound `CC/C=C\C/C=C\C/C=C\C/C=C\C/C=C\CCCC(=O)NCCNC(=O)c1cnccc1O` [VI-1, 4-hydroxy-N-(2-((5Z,8Z,11Z,14Z,17Z)-icosa-5,8,11,14,17-pentaenamido)ethyl)nicotinamide] returned a half-maximal inhibitory concentration (IC50) above 50 µM. Compound `CC/C=C\C/C=C\C/C=C\C/C=C\C/C=C\CCCC(=O)N1CCC(CN(C)C(=O)C2=CC(=O)C(C)(c3ccccc3)O2)CC1` (stereo not shown) [VII-8, N-((1-((5Z,8Z,11Z,14Z,17Z)-icosa-5,8,11,14,17-pentaenoyl)piperidin-4-yl)methyl)-N,5-dimethyl-4-oxo-5-phenyl-4,5-dihydrofuran-2-carboxamide] gave an IC50 below 25 µM. As for `CC/C=C\C/C=C\C/C=C\C/C=C\C/C=C\CCCC(=O)NCCNC(=O)c1cccnc1C` [VI-6, N-(2-((5Z,8Z,11Z,14Z,17Z)-icosa-5,8,11,14,17-pentaenamido)ethyl)-2-methylnicotinamide], the half-inhibitory concentration (IC50) was in the range of 25 to 50 µM. With `CC/C=C\C/C=C\C/C=C\C/C=C\C/C=C\CCCC(=O)N1CCC(CNC(=O)c2cnc(C)c[n+]2[O-])CC1` [VII-10, 2-(((1-((5Z,8Z,11Z,14Z,17Z)-icosa-5,8,11,14,17-pentaenoyl)piperidin-4-yl)methyl)carbamoyl)-5-methylpyrazine 1-oxide] the figure was below 25 µM; with `CC/C=C\C/C=C\C/C=C\C/C=C\C/C=C\C/C=C\CCC(=O)NCCNC(=O)C(C)(C)CCCOc1cc(C)ccc1C` [II-34, (4Z,7Z,10Z,13 Z,16Z,19Z)—N-(2-(5-(2,5-dimethylphenoxy)-2,2-dimethylpentanamido)ethyl)docosa-4,7,10,13,16,19-hexaenamide], below 25 µM; with `CC/C=C\C/C=C\C/C=C\C/C=C\C/C=C\CCCC(=O)NCCNC(=O)c1cccnc1-c1ccccc1` [VI-4, N-(2-((5Z,8Z,11Z,14Z,17Z)-icosa-5,8,11,14,17-pentaenamido)ethyl)-2-phenylnicotinamide], above 50 µM. Regarding `CC/C=C\C/C=C\C/C=C\C/C=C\C/C=C\CCCC(=O)N1CC[C@@H](CNC(=O)C2=CC(=O)C(C)(c3ccccc3)O2)C1` (stereo partly drawn) [VII-6, N—(((S)-1-((5Z,8Z,11Z,14Z,17Z)-icosa-5,8,11,14,17-pentaenoyl)pyrrolidin-3-yl)methyl)-5-methyl-4-oxo-5-phenyl-4,5-dihydrofuran-2-carboxamide], the IC50 was below 25 µM. `CC/C=C\C/C=C\C/C=C\C/C=C\C/C=C\CCCC(=O)NCCNC(=O)CNC(=O)c1cccnc1` [Compound I-30, N-(2-((2-((5Z,8Z,11Z,14Z,17Z)-icosa-5,8,11,14,17-pentaenamido)ethyl)amino)-2-oxoethyl)nicotinamide] yielded an IC50 of 25 to 50 µM. `CC/C=C\C/C=C\C/C=C\C/C=C\C/C=C\CCCC(=O)NCCNC(=O)c1cncc(O)c1` [VI-5, 5-hydroxy-N-(2-((5Z,8Z,11Z,14Z,17Z)-icosa-5,8,11,14,17-pentaenamido)ethyl)nicotinamide]: the IC50 lay within 25 to 50 µM.
